What is called melting point is the temperature, or range, at which the solid turns liquid.

This note sets out measurements from a melting point compilation (Tetko et al.; mined from patent text by program, amines drawn as free bases though some values may be those of a salt).

As for `O=C(Nc1ccc(C(=O)c2ccccc2)cc1)c1cc(Cl)cc(Cl)c1`, the melting point lay in the range of 219 to 220 °C.

Consider `COc1ccc(-c2c(C(=O)O)n(Cc3cc4c(cc3Cl)OCO4)c3ccccc23)c(OCC(=O)O)c1`, for which the melting point was 61 to 62 °C.

Compound `CC[C@H](Nc1nc(Nc2cccc(NS(C)(=O)=O)c2)nc2[nH]cnc12)c1ccccc1` showed a melting point of 138 to 141 °C.

Consider `CCOC(=O)C(C)(C)c1ccc2c(c1)Nc1ccccc1S2`, for which the melting point lay in the range of 96 to 99 °C.

`CCn1c(=O)[nH]c2ncccc2c1=O`: the melting point is 240 to 241 °C.

The compound `Cc1nc(-c2cccc(F)c2)n(-c2ccc(S(N)(=O)=O)cn2)n1` displayed a melting point of 195 to 196 °C.

Consider `CCCCCCCCCCCCS(=O)(=O)c1ccccc1[N+](=O)[O-]`, for which the melting point was 47 to 48 °C.

For `Clc1cc(N2CCCC2)nc(NC23CC4CC(CC(C4)C2)C3)n1`, the melting point was in the range of 178 to 180 °C.

Turning to `CCOC(=O)c1c(-c2ccc(N3CCN(C)CC3)cc2)n(C)n(-c2ccc(C#N)cc2)c1=O`, the melting point lay in the range of 278 to 280 °C.

`CCC(=O)N[C@@H](C)C(=O)N1CCC[C@H]1C(=O)NC1CCCC1`: the melting point was in the range of 172 to 173 °C.

In turn, `Cc1onc(NS(=O)(=O)c2cccc([N+](=O)[O-])c2)c1Br` displayed a melting point of 137 to 139 °C.

Take `CC(C)(NCCCn1cnc(CO)c1)c1ccc(-c2ccccc2)cc1`: the melting point was in the range of 128 to 130 °C.

The compound `CC(C)n1nc(CC(=O)c2ccc(F)cc2)ccc1=O` registered a melting point of 67 to 68 °C.

Consider `CC1=C(c2ccc(O)cc2)C(=O)c2ccc(O)cc21`, for which the melting point was 138 to 146 °C.

Compound `COCCNC(=O)Cn1nc(-c2ccccc2O)nc1-c1ccccc1O` had a melting point of 184 to 186 °C.

Regarding `CCCCCCCCCCCC(=O)c1ccc(-c2ccc(OCC(C)OC(=O)CCCCCC)c(Cl)c2)cc1` (stereo not given), the melting point lay within 43.2 to 43.4 °C.

Regarding `O=C(O)CNC(=O)C(S)Cc1ccccc1` (stereo not given), the melting point was in the range of 55 to 58 °C.

In turn, `O=C(NCc1ccc(C(F)(F)F)cc1)c1cnc(Cl)nc1N1CCCC1` gave a melting point of 170 to 171 °C.

Compound `c1cc(-c2cncnc2)cc(-n2cnc3cc(-c4ccoc4)ccc32)c1` yielded a melting point of 216 to 218 °C.

Turning to `CSC(C(=O)O)c1ccco1` (stereo not given), the melting point lay within 62 to 62.5 °C.

`CCNC(=S)NS(=O)(=O)c1cc2c(cc1OC)OCCC2CNC(=O)c1cc(Cl)ccc1OC` (stereo not given): the melting point lay within 196 to 197 °C.

Turning to `Oc1cc(-c2nn3c(c2Cl)CCCC3)c(F)cc1Cl`, the melting point is 177 to 178 °C.

As for `N#Cc1c(F)cccc1Nc1c(F)cccc1F`, the melting point fell in the range of 145 to 146 °C.

`N#CCSC(=S)SCCc1ccccc1` yielded a melting point of 72 to 73 °C.

The compound `Cc1nc(C)c(C(C)(O)c2ccccn2)s1` (stereo not given) showed a melting point of 104 to 105 °C.

Regarding `CNCCOc1ccc(C=CC(=O)N2CCc3c([nH]c4ccccc34)C2c2ccc3c(c2)CCO3)cc1` (stereo not given), the melting point was 145 °C.

The compound `CCCc1c2nc(C(=O)OC)cc(NS(=O)(=O)c3ccc(C)cc3)c2cc2c(=O)cc(C(=O)OCC)oc12` registered a melting point of 219 °C.

Compound `COc1c(C)c(CO)c(OC)c2ccccc12` displayed a melting point of 116 to 117 °C.

Regarding `O=c1c2c(c1=O)Nc1cc(Cl)c(Cl)cc1N2`, the melting point was greater than 360 °C.

Take `Cc1nn(C2CCOC2)c(N)c1C#N` (stereo not given): the melting point lay in the range of 134 to 135 °C.

Compound `Nc1nc(N)c(CCCC(CO)c2ccc(C(=O)N[C@@H](CCC(=O)O)C(=O)O)cc2)c(O)n1` (stereo not given in full) gave a melting point of 164 °C.

`O=C(NCCc1ccccc1)c1ccc(S(=O)(=O)Nc2ccccc2C(=O)O)cc1` showed a melting point of 242 to 244 °C.

`CCN(CC)c1ccc(C(c2ccc(N(C)C)cc2)c2ccc(N(C)C)cc2)c(O)c1` displayed a melting point of 94 to 95 °C.

On to `COC(=O)CN1Cc2c([nH]c3ccccc23)C1=O`, for which the melting point was in the range of 215 to 217 °C.

In the case of `COc1ccc(OC)c2c(=O)c3ccccc3sc12`, the melting point is 201 to 202 °C.

As to `CCCCCOc1cc(C(=O)O)ccc1OC`, the melting point came to 125 °C.

`CC1(O)c2ccccc2C2=NCCCN21` (stereo not given) came in with a melting point of 199 to 201 °C.

For `Clc1ccc2ncc3nc(Br)n(-c4ccccc4Cl)c3c2c1`, the melting point lay within 183 to 192 °C.

In turn, `CCC(=O)Nc1nc(CN2CCC(OC(c3ccccc3)c3ccccc3)CC2)cs1` displayed a melting point of 86 to 88 °C.

Take `CCOC(=O)C(=CNc1cscc1OC)C(=O)OCC`: the melting point was in the range of 100 to 102 °C.

For the compound `O=C(O)c1ccc(=O)n(CCCNC(=O)c2cccnc2)c1`, the melting point fell in the range of 218 to 220 °C.

Compound `CCCCc1c(OCOC(=O)C(C)(C)C)n(-c2ccccc2)n(-c2ccccc2)c1=O` came in with a melting point of 83 to 85 °C.

`COC(=O)c1ccc(-c2cccc([N+](=O)[O-])c2)cc1` had a melting point of 136 to 141 °C.

Regarding `COc1cc2c(Nc3cc(OC)c(Cl)cc3Cl)c(C#N)cnc2cc1F`, the melting point is 219 to 221 °C.

With `Cc1ccc(C(=O)NCc2ccccc2)cc1-c1nc(NCCN(C)C(=O)OC(C)(C)C)nc2c1CNC(=O)N2c1c(F)cccc1F`, the melting point was 160 to 163 °C.

`CC1N=Cc2cc(Cl)ccc2-n2c(Cc3ccccc3)nnc21` (stereo not given) gave a melting point of 195 to 197 °C.

Consider `C=CCOC(=O)c1[nH]c2cc(Cl)cc(Cl)c2c1C=C1NC(=O)N(c2ccccc2)C1=O`, for which the melting point was greater than 250 °C.

For the compound `CCCCCCCC(O)C(C)(C)C(=O)O` (stereo not given), the melting point was 39 to 41 °C.

On to `CCOC(=O)c1ccc(NCCCc2ccc(Cl)cc2)cc1`, for which the melting point lay in the range of 122 to 124 °C.

The compound `O=C(Nc1cccnc1)N1CCN(c2nccc(-c3ccc(F)cc3)n2)CC1` registered a melting point of 233 to 234 °C.

As for `COc1ccc(NC(C)=O)c(OC)c1-c1ccc(C[C@H](NC(=O)c2c(Cl)cccc2Cl)C(=O)O)cc1`, the melting point was 244 to 245 °C.

Compound `CC(=NNC(=O)c1ccccc1)c1cccc(Cl)c1O` gave a melting point of 202 to 203 °C.

The compound `Cc1cc(C(N)=O)co1` came in with a melting point of 158 °C.

For `Cc1cc(N)c(S(N)(=O)=O)cc1-c1ccccn1`, the melting point lay within 229 to 231 °C.

`CCCCCCCN(CCN1CCN(CCSc2nc3cccc(C(=O)OC)c3o2)CC1)C(=O)Nc1c(C(C)C)cccc1C(C)C` returned a melting point of 125 to 126 °C.

For `COc1ccc(-c2oc3c(C(=O)O)cccc3c(=O)c2C)cc1`, the melting point was 266 to 267 °C.

The compound `COc1nccc2c([N+](=O)[O-])c(C)ccc12` yielded a melting point of 94 °C.

Compound `NNC(=O)c1cccc(Cc2c[nH]cn2)c1O` displayed a melting point of 190 °C.

`Cc1cc(COc2ccc(S(=O)(=O)NC[C@@H](C(=O)NO)N3CCN(Cc4ccccc4)CC3)cc2)c2ccccc2n1`: the melting point came out at 188 °C.

In the case of `CNC(=O)C1SCOC(=NO)S1` (stereo not given), the melting point lay in the range of 99 to 102 °C.

`CC1(C)CCc2c(ccc3c2C(=O)C(Cl)=CC3=O)O1` showed a melting point of 140 to 142 °C.

In the case of `CCOC(=O)CNCc1c(N)ccc(Cl)c1Cl`, the melting point is 56 to 60 °C.

In the case of `CN1C(=O)C(C2=COc3ccccc3O2)=C(c2cn(C(=O)OC(C)(C)C)c3cc(OCc4ccccc4)ccc23)C1=O`, the melting point was found to be 88 °C.

As to `CN(C)CCCOc1ccc(/C=C/C(=O)O)cc1`, the melting point lay within 191 to 193 °C.

The compound `COC(=O)C1C=CCN2C(=O)C(CCI)(Cc3ccccc3)C(=O)N12` (stereo not given) yielded a melting point of 90 to 92 °C.

In turn, `CC(=O)Nc1ccc(S(=O)(=O)NC(=N)c2cnccn2)cc1` returned a melting point of 270 to 274 °C.

As for `O=C(Nc1ccc2nc(CN3CCCCC3)ccc2c1)c1ccc(-c2ccc(F)cc2)cc1`, the melting point was 202 to 204 °C.

In turn, `CCNC(=O)c1ccc(N2CCN(Cc3cc4c(c(OC(F)F)c3)OC(C)C(=O)N4)CC2)c(Cl)c1` (stereo not given) displayed a melting point of 102 to 104 °C.

Compound `COc1cc2c(cc1-c1cccnc1)-c1c(-c3cccs3)c3c(n1CC2)C(=O)N(C(C)C)CCN(C(=O)C(C)C)C3` had a melting point of 178 to 183 °C.

`CCOC(=O)c1oc2cc(O)c(O)cc2c1C` gave a melting point of 212 to 214 °C.

Turning to `CSc1ccc(-c2c(Cl)nc(Cl)nc2-c2ccccc2)cc1`, the melting point was 88 to 90 °C.

In the case of `Nc1c(S(=O)(=O)c2ccc(O)cc2)c2nccnc2n2ccnc12`, the melting point is greater than 300 °C.

Regarding `Cc1cc2c(s1)Nc1ccccc1N=C2N1CCN(C)[C@@H](COc2ccccc2)C1`, the melting point fell in the range of 74 to 88 °C.

Regarding `CC12CC3C(=O)OC(C1O)C3(C)O2` (stereo not given), the melting point lay in the range of 95 to 96.5 °C.

In the case of `CCCc1nnc2c(N(CC)CC)nc3ccccc3n12`, the melting point lay within 92 to 94 °C.

As to `Cc1cc(F)ccc1C(O)(Cc1nnnn1C)c1ccc(F)cc1C`, the melting point lay in the range of 186 to 188 °C.

`O=CNc1ccccc1-c1cc2ccccc2[nH]1`: the melting point lay in the range of 147 to 149 °C.

As for `CCCc1nn(C)c2c(=O)[nH]c(-c3sc(S(=O)(=O)N4CCN(C)CC4)cc3OCC)nc12`, the melting point is 219 to 220 °C.

Take `CNC1COc2ccc3[nH]c(C(F)(F)F)nc3c2O1` (stereo not given): the melting point lay in the range of 199 to 201 °C.

In turn, `CSc1cc(C)nc(SC)c1NC(=O)CCCCCCCCSc1nc2ccccc2s1` showed a melting point of 126 to 127 °C.

Regarding `Cc1nc(-n2ccc(OCCC3CC3)cc2=O)sc1C(=O)NCc1ccccc1`, the melting point was in the range of 172 to 174 °C.

In turn, `COCCNC(=O)c1cccc(-c2cccc3cc(Cc4cc(F)cc(C(F)(F)F)c4)sc23)c1` had a melting point of 106 to 107 °C.

`COC(=O)[C@@H]1NC(=O)[C@@H]1NC(=O)OC(C)(C)C` (relative stereo) displayed a melting point of 140 to 144 °C.

Compound `CCCN1CC(c2ccc(F)cc2)=C(c2ccc(S(N)(=O)=O)cc2)C1=O` registered a melting point of 180 to 181 °C.

Take `CCC(=O)Oc1cc2c(s1)CCN(C(C(=O)C1CC1)c1ccccc1F)C2` (stereo not given): the melting point was 101 to 102 °C.

For the compound `CCOP(=O)(OCC)c1ccc(/C=C(\C)c2ccc3c(c2)C(C)(C)CCC3(C)C)cc1`, the melting point was 72.5 to 73.5 °C.

Consider `CC(=O)NC1CSc2ccccc2NC1=O` (stereo not given), for which the melting point is 283 to 286 °C.

`CCCCc1c(Cl)nc(N)nc1-c1ccsc1` displayed a melting point of 154 to 155 °C.

The compound `O=C1N(C(c2ccccc2)c2ccccc2)c2cccc(F)c2C12COc1cc3c(cc12)OCCO3` (stereo not given) had a melting point of 196 to 198 °C.

Consider `Cc1ncncc1C(=O)Nc1cnc(-n2nc(C(F)(F)F)cc2C2CC2)nc1`, for which the melting point lay in the range of 201 to 203 °C.
